In ChEMBL document CHEMBL5036320, “Discovery of Icenticaftor (QBW251), a Cystic Fibrosis Transmembrane Conductance Regulator Potentiator with Clinical Efficacy in Cystic Fibrosis and Chronic Obstructive Pulmonary Disease” (J Med Chem, 2021):
In brackets after ≈: the same amount, converted by molar mass.

What was measured:
[1] = biological target: T1, Cystic fibrosis transmembrane conductance regulator (Homo sapiens, UniProt P13569, F508DEL); assay: Potentiation of CFTR F508del mutant (unknown origin) expressed in CHO cells assessed as chloride transport by measuring membrane potential incubated for 5 to 30 mins in presence of forskolin by Quattro assay; assay type: cell-based
T1 sequence (P13569 as listed by the source): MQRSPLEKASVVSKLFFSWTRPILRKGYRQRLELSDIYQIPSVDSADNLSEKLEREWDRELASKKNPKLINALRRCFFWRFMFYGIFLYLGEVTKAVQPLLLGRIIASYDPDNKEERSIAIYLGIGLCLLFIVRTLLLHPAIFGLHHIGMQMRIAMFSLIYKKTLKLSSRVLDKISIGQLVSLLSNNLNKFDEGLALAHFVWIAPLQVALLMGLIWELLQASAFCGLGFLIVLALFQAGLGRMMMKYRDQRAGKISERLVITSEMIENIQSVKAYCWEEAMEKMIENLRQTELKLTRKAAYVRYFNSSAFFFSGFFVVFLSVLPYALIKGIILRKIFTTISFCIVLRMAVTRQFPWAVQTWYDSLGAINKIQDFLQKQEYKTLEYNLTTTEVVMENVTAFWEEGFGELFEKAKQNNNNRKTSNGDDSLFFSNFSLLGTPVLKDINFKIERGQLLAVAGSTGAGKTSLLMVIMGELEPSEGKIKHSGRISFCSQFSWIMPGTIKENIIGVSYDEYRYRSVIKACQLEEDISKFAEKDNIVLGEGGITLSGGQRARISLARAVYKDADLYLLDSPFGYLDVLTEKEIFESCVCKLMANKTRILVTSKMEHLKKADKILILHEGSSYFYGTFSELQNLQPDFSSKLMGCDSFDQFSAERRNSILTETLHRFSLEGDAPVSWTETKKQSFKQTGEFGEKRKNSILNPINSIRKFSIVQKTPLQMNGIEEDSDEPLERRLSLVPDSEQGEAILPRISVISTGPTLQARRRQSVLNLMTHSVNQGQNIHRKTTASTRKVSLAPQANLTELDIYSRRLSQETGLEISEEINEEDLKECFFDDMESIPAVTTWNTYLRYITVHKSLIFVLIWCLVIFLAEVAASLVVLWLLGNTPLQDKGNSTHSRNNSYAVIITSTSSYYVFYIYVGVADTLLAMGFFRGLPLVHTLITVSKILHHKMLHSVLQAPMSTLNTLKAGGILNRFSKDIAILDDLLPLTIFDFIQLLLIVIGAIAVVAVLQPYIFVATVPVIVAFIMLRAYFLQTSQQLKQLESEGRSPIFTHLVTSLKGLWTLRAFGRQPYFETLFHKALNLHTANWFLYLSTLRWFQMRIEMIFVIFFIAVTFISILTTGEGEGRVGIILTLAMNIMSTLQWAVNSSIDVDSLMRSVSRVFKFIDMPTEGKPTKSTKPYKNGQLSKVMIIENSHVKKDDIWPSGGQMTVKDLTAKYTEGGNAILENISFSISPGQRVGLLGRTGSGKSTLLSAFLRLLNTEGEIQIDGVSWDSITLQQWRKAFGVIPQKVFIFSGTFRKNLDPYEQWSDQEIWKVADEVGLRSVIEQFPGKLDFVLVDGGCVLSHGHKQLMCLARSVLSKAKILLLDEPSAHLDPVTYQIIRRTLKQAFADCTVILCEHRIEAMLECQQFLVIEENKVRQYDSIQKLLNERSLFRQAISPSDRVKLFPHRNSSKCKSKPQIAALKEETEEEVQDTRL

[2] = Oral bioavailability in Sprague-Dawley rat at 3 mg/kg measured upto 48 hrs by LC-MS/MS analysis; assay type: ADME, organism-based; conditions: in vivo
[3] = Mean residence time in Sprague-Dawley rat at 3 mg/kg, po and 1 mg/kg, iv measured upto 48 hrs by LC-MS/MS analysis; assay type: ADME, organism-based; conditions: in vivo
[4] = Cmax in Sprague-Dawley rat at 3 mg/kg, po and 1 mg/kg, iv measured upto 48 hrs by LC-MS/MS analysis; assay type: ADME, organism-based; parameters: dose 3 mg/kg, time <=48; conditions: in vivo
[5] = Solubility of the compound at pH 6.8; assay type: physicochemical; conditions: buffer
[6] = Plasma Protein binding in Sprague-Dawley rat at 5 uM incubated for 4 hrs by rapid equilibrium dialysis; assay type: ADME, cell-free; conditions: read-out: PPB (converted)
[7] = tested on: Cystic fibrosis transmembrane conductance regulator (Homo sapiens), P13569 [F508del]; assay: Potentiation of CFTR F508del mutant (unknown origin) expressed in CHO cells assessed as chloride transport by measuring membrane potential incubated for 5 to 30 mins in presence of forskolin by Quattro assay relative to PG-01; assay type: cell-based; parameters: concentration or dose not given beside the values; conditions: time 5-30 min
Chain of Cystic fibrosis transmembrane conductance regulator (Homo sapiens), P13569 [F508del] (P13569 as listed by the source): as above

[8] = Volume of distribution in Sprague-Dawley rat at 3 mg/kg, po and 1 mg/kg, iv measured upto 48 hrs by LC-MS/MS analysis; assay type: ADME, organism-based; conditions: in vivo
[9] = Plasma Protein binding in human incubated for 4 hrs by equilibrium dialysis method; assay type: ADME, cell-free
[10] = Unbound Cmax in Sprague-Dawley rat at 3 mg/kg, po and 1 mg/kg, iv measured upto 48 hrs by LC-MS/MS analysis; assay type: ADME, organism-based; conditions: in vivo
[11] = Clearance in Sprague-Dawley rat at 3 mg/kg, po and 1 mg/kg, iv measured upto 48 hrs by LC MS/MS analysis; assay type: ADME, organism-based; conditions: in vivo
[12] = Clearance in Sprague-Dawley rat at 5 mg/kg, po or 0.5 mg/kg, iv measured upto 48 hrs by LC-MS/MS analysis; assay type: ADME, organism-based; conditions: in vivo
[13] = Volume of distribution at steady state in Sprague-Dawley rat at 5 mg/kg, po or 0.5 mg/kg, iv measured upto 48 hrs by LC-MS/MS analysis; assay type: ADME, organism-based; conditions: in vivo, read-out: Vdss
[14] = biological target: T1, Cystic fibrosis transmembrane conductance regulator; assay: Potentiation of CFTR F508del mutant (unknown origin) expressed in CHO cells assessed as chloride transport by measuring membrane potential preincubated for 5 mins followed by forskolin addition by FLIPR assay; assay type: cell-based
[15] = tested on: Cystic fibrosis transmembrane conductance regulator (Homo sapiens), P13569 [F508del]; assay: Potentiation of CFTR F508del mutant (unknown origin) expressed in FRT cells assessed as chloride transport by measuring membrane potential in presence of forskolin relative to PG-01; assay type: cell-based; conditions: filed as activator
[16] = biological target: T2, Cystic fibrosis transmembrane conductance regulator (Homo sapiens, UniProt P13569); assay: Potentiation of wild-type CFTR (unknown origin) expressed in FRT cells assessed as chloride transport by measuring membrane potential in presence of forskolin relative to PG-01; assay type: cell-based; conditions: filed as activator
Target sequence in this assay (P13569 whole entry, looked up): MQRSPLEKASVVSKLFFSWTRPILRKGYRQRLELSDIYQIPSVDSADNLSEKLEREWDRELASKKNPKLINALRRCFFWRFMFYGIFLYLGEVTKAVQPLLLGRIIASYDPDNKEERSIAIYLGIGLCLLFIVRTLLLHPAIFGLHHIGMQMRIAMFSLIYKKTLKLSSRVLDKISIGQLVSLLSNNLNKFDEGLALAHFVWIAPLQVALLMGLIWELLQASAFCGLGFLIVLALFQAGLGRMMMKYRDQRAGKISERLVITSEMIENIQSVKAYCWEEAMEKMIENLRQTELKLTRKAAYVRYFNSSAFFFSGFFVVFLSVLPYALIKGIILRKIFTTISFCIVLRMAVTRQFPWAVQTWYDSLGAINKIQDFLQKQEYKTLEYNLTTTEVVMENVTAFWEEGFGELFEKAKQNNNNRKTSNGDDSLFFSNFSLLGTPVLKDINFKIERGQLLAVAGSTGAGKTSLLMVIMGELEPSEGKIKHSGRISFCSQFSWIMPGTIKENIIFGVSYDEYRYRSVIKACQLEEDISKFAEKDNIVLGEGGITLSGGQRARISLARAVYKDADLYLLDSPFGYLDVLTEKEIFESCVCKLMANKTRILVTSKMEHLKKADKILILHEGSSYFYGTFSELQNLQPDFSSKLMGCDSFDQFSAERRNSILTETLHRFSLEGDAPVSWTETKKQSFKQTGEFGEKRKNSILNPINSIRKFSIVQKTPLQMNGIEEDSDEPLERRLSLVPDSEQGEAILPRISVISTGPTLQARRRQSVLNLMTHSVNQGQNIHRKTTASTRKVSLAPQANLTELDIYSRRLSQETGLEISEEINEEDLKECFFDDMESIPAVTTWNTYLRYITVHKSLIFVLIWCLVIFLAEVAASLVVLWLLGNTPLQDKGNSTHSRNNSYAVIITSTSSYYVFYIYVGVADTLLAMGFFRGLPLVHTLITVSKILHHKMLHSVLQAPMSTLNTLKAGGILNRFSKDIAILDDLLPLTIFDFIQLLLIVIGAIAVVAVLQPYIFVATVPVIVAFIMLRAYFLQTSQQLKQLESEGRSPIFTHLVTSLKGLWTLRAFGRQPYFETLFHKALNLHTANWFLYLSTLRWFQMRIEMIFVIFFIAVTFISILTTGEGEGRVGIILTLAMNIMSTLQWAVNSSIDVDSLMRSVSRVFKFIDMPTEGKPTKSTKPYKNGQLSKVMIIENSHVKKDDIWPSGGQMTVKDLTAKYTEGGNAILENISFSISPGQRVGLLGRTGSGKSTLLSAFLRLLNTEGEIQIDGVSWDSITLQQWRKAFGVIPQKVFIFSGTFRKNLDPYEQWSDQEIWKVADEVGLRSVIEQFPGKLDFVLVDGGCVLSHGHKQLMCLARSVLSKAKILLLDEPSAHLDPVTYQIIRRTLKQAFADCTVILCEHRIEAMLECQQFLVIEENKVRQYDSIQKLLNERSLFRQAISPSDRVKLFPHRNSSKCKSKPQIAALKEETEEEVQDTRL

[17] = tested on: Cystic fibrosis transmembrane conductance regulator (Homo sapiens), P13569 [F508del]; assay: Potentiation of CFTR F508del mutant (unknown origin) expressed in CHO cells assessed as chloride transport by measuring membrane potential preincubated for 5 mins followed by forskolin addition by FLIPR assay relative to PG-01; assay type: cell-based; conditions: filed as activator
[18] = Oral bioavailability in Sprague-Dawley rat at 5 mg/kg measured upto 48 hrs by LC-MS/MS analysis; assay type: ADME, organism-based; conditions: in vivo
[19] = biological target: T1, Cystic fibrosis transmembrane conductance regulator; assay: Potentiation of CFTR F508del mutant (unknown origin) expressed in FRT cells assessed as chloride transport by measuring membrane potential in presence of forskolin; assay type: cell-based
[20] = biological target: T2, Cystic fibrosis transmembrane conductance regulator; assay: Potentiation of wild-type CFTR (unknown origin) expressed in FRT cells assessed as chloride transport by measuring membrane potential in presence of forskolin; assay type: cell-based
Target sequence in this assay (P13569 whole entry): as the sequence (P13569 whole entry, looked up) above

[21] = Mean residence time in Sprague-Dawley rat at 5 mg/kg, po or 0.5 mg/kg, iv measured upto 48 hrs by LC-MS/MS analysis; assay type: ADME, organism-based; conditions: in vivo
[22] = Plasma protein binding in cynomolgus monkey at 5 uM incubated for 4 hrs by equilibrium dialysis method; assay type: ADME, cell-free, Macaca fascicularis; conditions: read-out: PPB (converted)
[23] = Plasma protein binding in Beagle dog at 5 uM incubated for 4 hrs by equilibrium dialysis method; assay type: ADME, cell-free, Canis lupus familiaris; conditions: read-out: PPB (converted)
[24] = biological target: T1, Cystic fibrosis transmembrane conductance regulator; assay: Potentiation of CFTR F508 deletion mutant (unknown origin) expressed in HBE cells assessed as change in short circuit current in presence of forskolin and amiloride; assay type: cell-based
[25] = biological target: Cystic fibrosis transmembrane conductance regulator (Homo sapiens, UniProt P13569, G551D); assay: Potentiation of CFTR G551D mutant (unknown origin) expressed in FRT cells assessed as chloride transport by measuring membrane potential in presence of forskolin; assay type: cell-based
Chain of Cystic fibrosis transmembrane conductance regulator (Homo sapiens, UniProt P13569, G551D) (P13569 whole entry G551D): as the sequence (P13569 whole entry, looked up) above, with G551D counted along it

[26] = biological target: T2, Cystic fibrosis transmembrane conductance regulator; assay: Potentiation of wild type CFTR (unknown origin) expressed in HBE cells assessed as change in short circuit current in presence of forskolin and amiloride; assay type: cell-based
Target sequence in this assay (P13569 whole entry): as the sequence (P13569 whole entry, looked up) above

Structure (SMILES) | EC50 [1] | solubility [5] | Activity ([7]; filed as activator) | further results
C[C@](O)(CNC(=O)c1nc(C(F)(F)F)c(C(F)(F)F)cc1N)C(F)(F)F | 0.009 µM | 82 µg/mL (≈ 205 µM) | 113% | bioavailability [2]: 75%; MRT [3]: 7.2 h; Cmax [4]: 595 nM; fraction unbound at 4 h, 5 µM [6]: 0.019; Vd [8]: 6.4 L/kg; PPB ([9]; 4 h): 98.6%; fCmax [10]: 11 nM; clearance [11]: 15 mL/min/kg
COC(=O)c1ccc(C(F)(F)F)cc1N | 3.78 µM | < 1 µg/mL | 72% | 
CNc1nc(C(=O)NCC(C)(O)C(F)(F)F)c(N)cc1C(F)(F)F (stereo in doubt; 30a) [listing 1 of 2 here] |  |  | 91% | 
CC(O)CNC(=O)c1nc(Br)c(C(F)(F)F)cc1N (racemic) | 0.07 µM | 120 µg/mL (≈ 351 µM) | 79% | 
COC(=O)c1cc(-c2cccnc2)c(C(F)(F)F)cc1N | 0.329 µM | 56 µg/mL (≈ 189 µM) | 100% | 
CC(O)(CNC(=O)c1ncc(C(F)(F)F)cc1N)C(F)(F)F (racemic) | 0.229 µM |  | 78% | 
COC(=O)c1nc(-c2ccco2)c(C(F)(F)F)cc1N | 5.31 µM | 11 µg/mL (≈ 38.4 µM) | 72% | 
CNC(=O)c1nc(Br)c(C(F)(F)F)cc1N | 0.25 µM |  | 97% | 
CCOc1nc(C(=O)NC[C@](C)(O)C(F)(F)F)c(N)cc1C(F)(F)F | 0.015 µM | 60 µg/mL (≈ 160 µM) | 116% | 
Nc1cc(C(F)(F)F)c(Br)nc1C(=O)NCC(O)(C(F)(F)F)C(F)(F)F | 0.01 µM | 3 µg/mL (≈ 6.46 µM) | 117% | 
CNc1nc(C(=O)NCC(C)(O)C(F)(F)F)c(N)cc1C(F)(F)F (stereo in doubt; 30b) [listing 1 of 2 here] | 0.111 µM |  |  | 
COC(=O)c1cc(-c2ccco2)c(C(F)(F)F)cc1N | 0.078 µM | < 1 µg/mL | 93% | clearance [12]: 30 mL/min/kg; Vd [13]: 0.4 L/kg; EC50 [14]: 0.92 µM; Activity [15]: 100%; Activity [16]: 206%; Activity [17]: 154%; bioavailability [18]: 15%; EC50 [19]: 0.18 µM; EC50 [20]: 30 µM; fraction unbound at 4 h, 5 µM [6]: 0.005; MRT [21]: 0.2 h
COc1nc(C(=O)NC[14C](C)(O)C(F)(F)F)c(N)cc1C(F)(F)F (centres undefined) |  |  |  | fraction unbound at 4 h, 5 µM [22]: 0.12; fraction unbound at 4 h, 5 µM [23]: 0.052; fraction unbound at 4 h ([9]; read-out: PPB (converted)): 0.077
Nc1cc(C(F)(F)F)c(Br)nc1C(=O)NC[C@H](O)C(F)(F)F | 0.023 µM | 290 µg/mL (≈ 732 µM) | 102% | 
COC(=O)c1cc(C2CCCO2)c(C(F)(F)F)cc1N (racemic) | 0.462 µM | 6 µg/mL (≈ 20.7 µM) | 90% | 
CN(C)c1nc(C(=O)NCC(C)(O)C(F)(F)F)c(N)cc1C(F)(F)F (stereo in doubt; 31b) [listing 1 of 2 here] | 0.046 µM |  |  | 
CCc1nc(C(=O)NCC(C)(O)C(F)(F)F)c(N)cc1C(F)(F)F (stereo in doubt; 28a) [listing 1 of 2 here] |  |  | 100% | 
CNC(=O)c1cc(-c2ccco2)c(C(F)(F)F)cc1N | 1.86 µM | 13 µg/mL (≈ 45.7 µM) | 83% | 
C[C@@](O)(CNC(=O)c1nc(Br)c(C(F)(F)F)cc1N)C(F)(F)F | 0.03 µM | 16 µg/mL (≈ 39 µM) | 91% | 

Structure (SMILES) | EC50 [1] | solubility [5] | Activity ([7]; filed as activator) | further results
CN(C)c1nc(C(=O)NCC(C)(O)C(F)(F)F)c(N)cc1C(F)(F)F (stereo in doubt; 31a) [listing 1 of 2 here] | 0.02 µM | 165 µg/mL (≈ 441 µM) |  | 
CC(C)c1ccc(NC(=O)C(c2ccccc2)N(C)C(=O)Cc2c[nH]c3ccccc23)cc1 (centres undefined) | 1.25 µM |  |  | EC50 [14]: 0.39 µM; EC50 [19]: 0.26 µM; EC50 [20]: 0.99 µM
COC(=O)c1ccccc1N [METHYL ANTHRANILATE] | 30 µM |  |  | 
CNc1nc(C(=O)NCC(C)(O)C(F)(F)F)c(N)cc1C(F)(F)F (stereo in doubt; 30a) [listing 2 of 2 here] | 0.276 µM | 13 µg/mL (≈ 36.1 µM) |  | 
CC(C)(O)CNC(=O)c1nc(Br)c(C(F)(F)F)cc1N | 0.077 µM | 28 µg/mL (≈ 78.6 µM) | 101% | 
CN(C)C(=O)c1cc(-c2ccco2)c(C(F)(F)F)cc1N | 30 µM |  |  | Activity [7]: 37%
Nc1cc(C(F)(F)F)c(-c2ccco2)cc1C(=O)O | 5.83 µM |  | 63% | 
COC(=O)c1cc(I)c(C(F)(F)F)cc1N | 0.362 µM | 2 µg/mL (≈ 5.8 µM) | 104% | 
Nc1cc(C(F)(F)F)c(Br)nc1C(=O)NCCC(F)(F)F | 0.04 µM | 49 µg/mL (≈ 129 µM) | 132% | 
COC(=O)c1cc(-c2ncco2)c(C(F)(F)F)cc1N | 0.24 µM | 36 µg/mL (≈ 126 µM) | 92% | 
CCc1nc(C(=O)NCC(C)(O)C(F)(F)F)c(N)cc1C(F)(F)F (stereo in doubt; 28b) [listing 1 of 2 here] | 0.043 µM |  |  | 
CNc1nc(C(=O)NCC(C)(O)C(F)(F)F)c(N)cc1C(F)(F)F (stereo in doubt; 30b) [listing 2 of 2 here] |  |  | 95% | 
CC(C)(C)c1cc(C(C)(C)C)c(NC(=O)c2c[nH]c3ccccc3c2=O)cc1O [IVACAFTOR] |  |  |  | EC50 [24]: 0.068 µM; EC50 [19]: 0.049 µM; EC50 [20]: 0.07 µM; EC50 [25]: 0.131 µM; EC50 [26]: 0.034 µM
CN(C)c1nc(C(=O)NCC(C)(O)C(F)(F)F)c(N)cc1C(F)(F)F (stereo in doubt; 31a) [listing 2 of 2 here] |  |  | 89% | 
CN(C)c1nc(C(=O)NCC(C)(O)C(F)(F)F)c(N)cc1C(F)(F)F (stereo in doubt; 31b) [listing 2 of 2 here] |  |  | 93% | 
CCc1nc(C(=O)NCC(C)(O)C(F)(F)F)c(N)cc1C(F)(F)F (stereo in doubt; 28b) [listing 2 of 2 here] |  |  | 101% | 
Cc1nc(C(=O)NCC(C)(O)C(F)(F)F)c(N)cc1C(F)(F)F (racemic) | 0.24 µM |  | 99% | 
CCc1nc(C(=O)NCC(C)(O)C(F)(F)F)c(N)cc1C(F)(F)F (stereo in doubt; 28a) [listing 2 of 2 here] | 0.008 µM | 91 µg/mL (≈ 253 µM) |  | 
O=c1c(-c2ccc(O)cc2)coc2cc(O)cc(O)c12 |  |  | 88% | Activity [15]: 54%; Activity [16]: 138%; Activity [17]: 83%
